Measured values: patent US9642829B2, “Antifungal compound and uses thereof” (The University of Hong Kong, priority 2012, dated 2017)

Key:
C. albicans [1] = assay: Antifungal susceptibility (MIC/MFC), CLSI criteria, 96-well double dilution; format: cell-based, Candida albicans; details: for Susceptibility (MIC90): 0.5 McFarland inoculum (10^6 cells/ml)
Method: (§1) Antifungal activity of the small molecules was evaluated using USA standards, Clinical and Laboratory Standards Institute (CLSI) criteria. In brief, inocula from 24 h Candida cultures on Sabourauds's dextore agar were standardized to a turbidity equivalent of 0.5 McFarland standards at 520 nm with a spectrophotometer. The suspensions were further diluted in Rosewell Park Memorial Institute (RPMI) 1640 medium (Life technologies, New York, USA) to yield an inoculum concentration of approximately 0.5 1×10^3 to 2.5 1×10^3 cells/ml. Minimum inhibitory concentration (MIC) and minimum fungicidal concentration (MFC) assay was performed in 96-well plates (Iwaki, Tokyo, Japan) and each of the Candida species was exposed to a double dilution of SM21. Amphotericin B was used as a positive control. All the experiments were preformed three occasions with duplicates for all isolates. The plates were incubated at 35° C. for 48 h to evaluate MIC. In the case of Cryotococcus neoformans, reading were taken after 72 h. Aforementioned assay was performed for C. albicans ATCC 90028, C. albicans SC5314 and 10 C. albicans clinical isolates. Moreover, MIC/MFC determination was carried out for other fungal species such as C. glabrata, C. krusei, C. tropicalis, C. parapsilosis, C. neoformans, Aspergillus fumigates and Penicillium marneffei. […] Next using dose-dependent assay we tested that MIC/MFC of SM21 from 10^3 cells/ml to 10^7 cells/ml of C. albicans (Table 2). Each of the foregoing experiment was repeated on three different occasions.

C. glabrata = assay: Antifungal susceptibility (MIC/MFC), CLSI criteria; format: cell-based, Candida glabrata; details: C. glabrata ATCC; 0.5 McFarland inoculum (10^6 cells/ml)
Method: (§2) Antifungal activity of the small molecules was evaluated using USA standards, Clinical and Laboratory Standards Institute (CLSI) criteria. In brief, inocula from 24 h Candida cultures on Sabourauds's dextore agar were standardized to a turbidity equivalent of 0.5 McFarland standards at 520 nm with a spectrophotometer. The suspensions were further diluted in Rosewell Park Memorial Institute (RPMI) 1640 medium (Life technologies, New York, USA) to yield an inoculum concentration of approximately 0.5 1×10^3 to 2.5 1×10^3 cells/ml. Minimum inhibitory concentration (MIC) and minimum fungicidal concentration (MFC) assay was performed in 96-well plates (Iwaki, Tokyo, Japan) and each of the Candida species was exposed to a double dilution of SM21. Amphotericin B was used as a positive control. All the experiments were preformed three occasions with duplicates for all isolates. The plates were incubated at 35° C. for 48 h to evaluate MIC. In the case of Cryotococcus neoformans, reading were taken after 72 h. Aforementioned assay was performed for C. albicans ATCC 90028, C. albicans SC5314 and 10 C. albicans clinical isolates. Moreover, MIC/MFC determination was carried out for other fungal species such as C. glabrata, C. krusei, C. tropicalis, C. parapsilosis, C. neoformans, Aspergillus fumigates and Penicillium marneffei. […]

C. krusei = assay: Antifungal susceptibility (MIC/MFC), CLSI criteria; format: cell-based, Candida krusei; details: C. krusei ATCC; 0.5 McFarland inoculum (10^6 cells/ml)
Method: as §2

C. parapsilosis = assay: Antifungal susceptibility (MIC/MFC), CLSI criteria; format: cell-based, Candida parapsilosis; details: C. parapsilosis ATCC; 0.5 McFarland inoculum (10^6 cells/ml)
Method: as §2

Aspergillus fumigatus = assay: Antifungal susceptibility (MIC/MFC), CLSI criteria; format: cell-based; details: 0.5 McFarland inoculum (10^6 cells/ml)
Method: as §1

Penicillium marneffei = assay: Antifungal susceptibility (MIC/MFC), CLSI criteria; format: cell-based; details: 0.5 McFarland inoculum (10^6 cells/ml)
Method: as §1

[2] = system: C. tropicalis drug resistant isolates; assay: Susceptibility of multidrug resistant clinical isolates, CLSI M27A broth microdilution; format: cell-based, Candida tropicalis; details: resistant to Itraconazole
Text: (§3) Oral Biosciences laboratory has one of the largest collections of fungal isolates, particular that of Candida species in the world. In our previous studies, we have found multidrug resistant clinical isolates of Candida species against existing antifungals. In particular, some of these strains are resistant to best antifungal agents to date such as caspofungin, amphotericin B and fluconazole. Therefore, we performed antifungal susceptibility testing for SM21 against these drug resistant Candida isolates suing CLSI M27A brothmicrodultion assay and CLSI M44-A disc diffusion assay.

[3] = system: C. albicans SC5314 and C. albicans ATCC 90028; assay: Antifungal activity compared with caspofungin and amphotericin B (FIG. 2, CLSI M44-A disc diffusion); format: cell-based, Candida albicans
Text: as §3

resistant isolate T-1549 = assay: as above; format: cell-based, C. guilliermondii; details: resistant isolate T-1549 (FIG. 2C)
Text: as §3

[4] = system: mixed species Candida biofilms; assay: Mixed species Candida biofilm MIC, XTT reduction assay; format: cell-based; details: 48 h mixed species biofilms, two Candida species at 1×10^7 cells/ml each
Method: Clinical studies have shown that some of the Candida species could involve mixed Candida species such as C. albicans with non-albicans Candida species. Therefore, next we formed mixed species biofilms using the methods we have used in our previous published studies. This methodology is essentially similar to what mentioned under mono-species biofilms except initial inoculums involve two Candida species at equal inoculums size of 1×10^7 cells/ml. After 48 h of growth, mixed species Candida biofilms were subjected to serially diluted concentration of SM21 and MIC was determined by XTT reduction assay (FIG. 5).

[5] = system: human gingival fibroblasts; assay: Cytotoxicity assay (MTT reduction, FIG. 6); format: cell-based; details: primary human gingival fibroblasts; at effective concentration
Method: (§4) FIG. 6. MTT reduction assay of primary culture human monocytes, gingival fibroblasts and oral keratinocytes showing safety of SM21.
(§5) Next, we used mouse model and treated the animals with 100 times of the effective dose (2 μg) i.e. 200 μg of SM21 twice a day for five days.

human monocytes = assay: Cytotoxicity assay (MTT reduction, FIG. 6); format: cell-based; details: primary human monocytes; at effective concentration
Method: as §4, §5

human oral keratinocytes = assay: Cytotoxicity assay (MTT reduction, FIG. 6); format: cell-based; details: primary human oral keratinocytes; at effective concentration
Method: as §4, §5

C. albicans [6] = assay: Systemic candidiasis mouse model; format: in vivo; details: i.v. C. albicans 1×10^6 cells/mL, 100 μl; 2 μg SM21 from 3 h post-infection, twice a day for five days
Method: As a pilot study, we used systemic candidiasis mouse models we have established in our laboratory to evaluate the effect of SM21 against systemic Candida infection. In brief, C. albicans inoculum of 1×10^6 cells/mL was prepared in phosphate buffered saline (PBS) eight mice were infected with 100 μl of the standard inoculum size intravenously via the tail vein. Three hours after post-infection four mice (test group) were given 2 μg of SM21 and other four (control group) were given PBS. SM21 treatment was continued twice a day for five days. By five days all mice in the control group died (FIG. 8). Mice in each test group were sacrificed according to the standard guidelines and their kidney, liver, pancreas, and spleen will be harvested. The fungal burden in the tissues will be assessed according to a standard protocol. In brief, part of the excised tissues were weighed individually and homogenized in sterile saline. Aliquots of 100 μL from tissue homogenates and their dilutions were plated on Sabouraud's dextrose agar and colonies were counted after 48 h of incubation at 37° C.

CN(C)c1ccc(/C=C/c2cc(C(C)(C)C)[o+]c(C(C)(C)C)c2)cc1.[O-][Cl+3]([O-])([O-])[O-] [SM21]
Antifungal activity against clinical isolates (C. albicans [1]; 20 C. albicans strains isolated from HIV/AIDS patients): active against all isolates | Susceptibility (MIC90) (C. albicans [1]; C. albicans ATCC 90028): 0.2 µg/mL | Susceptibility (MIC90) (C. albicans [1]; C. albicans CL1): 0.2 µg/mL | Susceptibility (MIC90) (C. albicans [1]; C. albicans CL2): 0.2 µg/mL | Susceptibility (MIC90) (C. albicans [1]; C. albicans CL3): 1.6 µg/mL | Susceptibility (MIC90) (C. albicans [1]; C. albicans CL4): 0.8 µg/mL | Susceptibility (MIC90) (C. albicans [1]; C. albicans CL5): 1.6 µg/mL | Susceptibility (MIC90) (C. albicans [1]; C. albicans CL6): 1.6 µg/mL | Susceptibility (MIC90) (C. albicans [1]; C. albicans CL7): 0.8 µg/mL | Susceptibility (MIC90) (C. albicans [1]; C. albicans CL8): 0.8 µg/mL | Susceptibility (MIC90) (C. albicans [1]; C. albicans CL9): 1.6 µg/mL | Susceptibility (MIC90) (C. albicans [1]; C. albicans CL10): 1.6 µg/mL | Susceptibility (MIC90) (C. albicans [1]; C. albicans SC5314): 0.2 µg/mL | Susceptibility (MIC90) (C. glabrata): 1.6 µg/mL | Susceptibility (MIC90) (C. krusei): 0.4 µg/mL | Susceptibility (MIC90) (C. parapsilosis): 1.6 µg/mL | Susceptibility (MIC90) (Aspergillus fumigatus): 6.25 µg/mL | Susceptibility (MIC90) (Penicillium marneffei): 0.2 µg/mL | MIC ([2]; C. tropicalis T789): 1 µg/mL | MIC ([2]; C. tropicalis T1148): 0.5 µg/mL | MIC ([2]; C. tropicalis T1427): 1 µg/mL | Susceptibility of the strain to the agent ([3]; C. albicans ATCC 90028, CLSI quality control strain (FIG. 2B)): susceptible | Susceptibility of the strain to the agent ([3]; C. albicans SC5314 (FIG. 2A)): susceptible | Effectiveness against resistant isolate (resistant isolate T-1549): effective | Active concentration (MIC by XTT reduction assay) against mixed species biofilms [4]: 25 µg/mL | Cytotoxicity [5]: no cytotoxicity | Cytotoxicity (human monocytes): no cytotoxicity | Cytotoxicity (human oral keratinocytes): no cytotoxicity | Survival of infected mice (C. albicans [6]): saved all the mice
